Results: ChEMBL document CHEMBL1201862, “PubChem BioAssay data set” (2004)
The source made the active and inactive calls.

How the values were obtained:
Major prion protein = Major prion protein (Homo sapiens, UniProt P04156); type: functional, cell-based
[1] = target: T1, COUP transcription factor 2 (Homo sapiens, UniProt P24468); experiment: Luminescence-based cell-based high throughput dose response assay to identify inhibitors of COUP-TFII (NR2F2).; type: functional;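 further: HEK293 cells transiently cotransfected with COUP-TFII expression vector and reporter; luciferase reporter luminescence driven by COUP-TFII from the pX2-168 reporter plasmid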
T1 sequence (P24468 whole entry): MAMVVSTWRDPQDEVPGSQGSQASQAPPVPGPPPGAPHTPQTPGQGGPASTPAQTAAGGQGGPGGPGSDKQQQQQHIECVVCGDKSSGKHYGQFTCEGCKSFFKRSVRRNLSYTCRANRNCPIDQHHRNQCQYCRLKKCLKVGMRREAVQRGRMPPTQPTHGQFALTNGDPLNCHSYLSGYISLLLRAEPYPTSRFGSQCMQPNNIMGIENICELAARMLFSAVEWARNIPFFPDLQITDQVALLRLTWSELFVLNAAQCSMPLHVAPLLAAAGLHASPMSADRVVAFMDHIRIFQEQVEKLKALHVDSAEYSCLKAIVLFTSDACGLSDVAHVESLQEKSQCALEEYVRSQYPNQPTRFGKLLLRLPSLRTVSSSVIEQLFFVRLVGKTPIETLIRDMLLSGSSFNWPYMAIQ

Prothrombin = Prothrombin (Homo sapiens, UniProt P00734); experiment: Thrombin 1536 HTS Dose Response Confirmation. [Related pubchem assays: 1046 (Thrombin 1536 HTS; hits were confirmed in this assay)]; type: functional
[2] = target: T2, DNA repair and recombination protein RAD54-like (Homo sapiens, UniProt Q92698); experiment: inhibitors of human RAD54 branch migration, confirmation, biochemical, fluorescence, cherry-picked samples, dose series (AID 651657); type: functional
T2 sequence (Q92698 whole entry): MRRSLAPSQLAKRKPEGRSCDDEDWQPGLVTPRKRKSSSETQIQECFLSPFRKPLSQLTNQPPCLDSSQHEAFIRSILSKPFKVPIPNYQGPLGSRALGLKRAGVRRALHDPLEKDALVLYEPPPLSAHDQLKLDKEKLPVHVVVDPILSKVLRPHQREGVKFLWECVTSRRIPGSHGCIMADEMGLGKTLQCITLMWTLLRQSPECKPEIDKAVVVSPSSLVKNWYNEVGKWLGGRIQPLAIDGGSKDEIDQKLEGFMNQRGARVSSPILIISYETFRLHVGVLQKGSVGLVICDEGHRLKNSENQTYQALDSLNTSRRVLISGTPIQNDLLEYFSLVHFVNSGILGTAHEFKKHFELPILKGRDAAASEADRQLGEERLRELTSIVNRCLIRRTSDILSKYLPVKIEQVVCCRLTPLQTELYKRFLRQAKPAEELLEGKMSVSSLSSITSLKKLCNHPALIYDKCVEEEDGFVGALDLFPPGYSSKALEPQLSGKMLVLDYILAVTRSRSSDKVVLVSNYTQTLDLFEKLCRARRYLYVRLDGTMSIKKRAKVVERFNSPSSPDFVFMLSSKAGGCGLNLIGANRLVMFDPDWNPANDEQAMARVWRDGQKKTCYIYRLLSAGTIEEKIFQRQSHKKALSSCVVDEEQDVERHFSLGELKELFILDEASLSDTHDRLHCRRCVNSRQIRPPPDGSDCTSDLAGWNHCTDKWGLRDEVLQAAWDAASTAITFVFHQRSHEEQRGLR

[3] = target: T3, Rac GTPase-activating protein 1 (Homo sapiens, UniProt Q9H0H5); experiment: MgcRacGAP GTPase-activating activity inhibitors, confirmation, biochemical, ADP Hunter fluorescence, primary and confirmatory (AID 624330); type: functional
T3 sequence (Q9H0H5 whole entry): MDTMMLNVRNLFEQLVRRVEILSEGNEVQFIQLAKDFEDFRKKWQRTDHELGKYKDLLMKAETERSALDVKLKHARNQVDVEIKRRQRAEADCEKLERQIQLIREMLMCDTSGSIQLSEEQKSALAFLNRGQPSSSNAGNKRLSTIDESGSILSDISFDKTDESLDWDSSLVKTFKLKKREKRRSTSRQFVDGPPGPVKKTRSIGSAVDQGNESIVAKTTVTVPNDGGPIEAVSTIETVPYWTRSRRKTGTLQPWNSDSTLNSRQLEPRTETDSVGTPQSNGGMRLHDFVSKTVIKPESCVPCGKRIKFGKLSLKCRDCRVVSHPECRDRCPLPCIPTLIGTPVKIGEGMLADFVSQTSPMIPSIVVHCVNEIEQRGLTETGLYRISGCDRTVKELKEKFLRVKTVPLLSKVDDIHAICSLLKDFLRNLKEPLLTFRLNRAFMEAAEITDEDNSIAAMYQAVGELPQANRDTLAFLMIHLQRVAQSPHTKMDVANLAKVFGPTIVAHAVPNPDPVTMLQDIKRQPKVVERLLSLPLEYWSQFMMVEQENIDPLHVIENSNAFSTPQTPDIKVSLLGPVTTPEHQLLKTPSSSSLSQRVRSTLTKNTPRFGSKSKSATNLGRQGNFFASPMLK

[4] = target: T4, DNA repair protein RAD52 homolog (Homo sapiens, UniProt P43351); type: functional, biochemical
T4 sequence (P43351 whole entry): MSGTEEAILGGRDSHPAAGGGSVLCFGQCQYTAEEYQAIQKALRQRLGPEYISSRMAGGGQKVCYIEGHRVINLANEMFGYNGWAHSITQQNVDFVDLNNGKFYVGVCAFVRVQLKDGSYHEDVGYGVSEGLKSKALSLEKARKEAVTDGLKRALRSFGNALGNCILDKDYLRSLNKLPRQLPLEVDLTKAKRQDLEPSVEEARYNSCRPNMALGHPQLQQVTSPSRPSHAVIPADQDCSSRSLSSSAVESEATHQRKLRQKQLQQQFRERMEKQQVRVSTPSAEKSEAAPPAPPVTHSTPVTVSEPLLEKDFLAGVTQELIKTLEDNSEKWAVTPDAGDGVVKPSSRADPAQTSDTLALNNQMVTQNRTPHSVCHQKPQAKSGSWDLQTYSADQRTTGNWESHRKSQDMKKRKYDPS

[5] = target: T5, Heat shock factor protein 1 (Mus musculus, UniProt P38532); experiment: inhibition of MG132-induced HSE-luciferase signal, confirmation, cell-based, NIH3T3, luminescence, dose retest (AID 2382); type: functional;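 further: NIH3T3 fibroblasts with HSF1-driven luciferase reporter stressed by proteasome inhibitor MG132; luminescence from HSF1-driven luciferase expression after 8 hours of MG132 stress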
T5 sequence (P38532 whole entry): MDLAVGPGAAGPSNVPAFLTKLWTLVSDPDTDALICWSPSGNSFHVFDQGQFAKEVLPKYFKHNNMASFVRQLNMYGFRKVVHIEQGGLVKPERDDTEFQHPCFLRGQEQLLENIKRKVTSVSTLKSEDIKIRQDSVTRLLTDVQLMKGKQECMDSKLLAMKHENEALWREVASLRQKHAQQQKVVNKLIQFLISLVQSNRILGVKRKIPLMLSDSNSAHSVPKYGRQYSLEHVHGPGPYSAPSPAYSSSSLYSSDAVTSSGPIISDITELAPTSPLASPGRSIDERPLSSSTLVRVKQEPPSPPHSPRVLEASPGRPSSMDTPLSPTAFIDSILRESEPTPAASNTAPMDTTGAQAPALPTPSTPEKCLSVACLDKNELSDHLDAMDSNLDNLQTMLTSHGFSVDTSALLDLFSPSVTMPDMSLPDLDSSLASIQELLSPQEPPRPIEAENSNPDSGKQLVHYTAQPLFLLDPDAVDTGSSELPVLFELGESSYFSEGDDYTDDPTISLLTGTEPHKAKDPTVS

Caspase-6 = target: T6, Caspase-6 (Homo sapiens, UniProt P55212); experiment: human caspase-6 inhibitors, dose response, biochemical, VEID-R110 fluorescence, cherry-pick (AID 720632)
T6 sequence (P55212 whole entry): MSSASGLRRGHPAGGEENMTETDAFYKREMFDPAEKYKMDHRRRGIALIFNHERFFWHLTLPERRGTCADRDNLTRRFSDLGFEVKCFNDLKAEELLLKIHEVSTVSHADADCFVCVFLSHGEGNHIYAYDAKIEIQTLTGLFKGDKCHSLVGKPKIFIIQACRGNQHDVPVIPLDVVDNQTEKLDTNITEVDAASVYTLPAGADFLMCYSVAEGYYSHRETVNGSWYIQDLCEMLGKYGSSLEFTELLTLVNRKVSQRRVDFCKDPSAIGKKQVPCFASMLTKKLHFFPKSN

[6] = non-specific cell cytotoxicity, dose response, cytotoxicity control for PAX8 inhibitor project, plate reader, dry powder samples (AID 743021); type: functional, cell-based
Paired box protein Pax-8 = Paired box protein Pax-8 (Homo sapiens, UniProt Q06710); experiment: inhibitors of PAX8-driven TPO luciferase reporter, dose response, RMG-I cells, cherry-pick (AID 687027); type: functional, cell-based;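 further: luciferase reporter driven by Pax8 target thyroperoxidase promoter measured by SteadyGlo luminescence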
[7] = target: T7, Histone-lysine N-methyltransferase NSD2 (Homo sapiens, UniProt O96028); type: biochemical
T7 sequence (O96028 whole entry): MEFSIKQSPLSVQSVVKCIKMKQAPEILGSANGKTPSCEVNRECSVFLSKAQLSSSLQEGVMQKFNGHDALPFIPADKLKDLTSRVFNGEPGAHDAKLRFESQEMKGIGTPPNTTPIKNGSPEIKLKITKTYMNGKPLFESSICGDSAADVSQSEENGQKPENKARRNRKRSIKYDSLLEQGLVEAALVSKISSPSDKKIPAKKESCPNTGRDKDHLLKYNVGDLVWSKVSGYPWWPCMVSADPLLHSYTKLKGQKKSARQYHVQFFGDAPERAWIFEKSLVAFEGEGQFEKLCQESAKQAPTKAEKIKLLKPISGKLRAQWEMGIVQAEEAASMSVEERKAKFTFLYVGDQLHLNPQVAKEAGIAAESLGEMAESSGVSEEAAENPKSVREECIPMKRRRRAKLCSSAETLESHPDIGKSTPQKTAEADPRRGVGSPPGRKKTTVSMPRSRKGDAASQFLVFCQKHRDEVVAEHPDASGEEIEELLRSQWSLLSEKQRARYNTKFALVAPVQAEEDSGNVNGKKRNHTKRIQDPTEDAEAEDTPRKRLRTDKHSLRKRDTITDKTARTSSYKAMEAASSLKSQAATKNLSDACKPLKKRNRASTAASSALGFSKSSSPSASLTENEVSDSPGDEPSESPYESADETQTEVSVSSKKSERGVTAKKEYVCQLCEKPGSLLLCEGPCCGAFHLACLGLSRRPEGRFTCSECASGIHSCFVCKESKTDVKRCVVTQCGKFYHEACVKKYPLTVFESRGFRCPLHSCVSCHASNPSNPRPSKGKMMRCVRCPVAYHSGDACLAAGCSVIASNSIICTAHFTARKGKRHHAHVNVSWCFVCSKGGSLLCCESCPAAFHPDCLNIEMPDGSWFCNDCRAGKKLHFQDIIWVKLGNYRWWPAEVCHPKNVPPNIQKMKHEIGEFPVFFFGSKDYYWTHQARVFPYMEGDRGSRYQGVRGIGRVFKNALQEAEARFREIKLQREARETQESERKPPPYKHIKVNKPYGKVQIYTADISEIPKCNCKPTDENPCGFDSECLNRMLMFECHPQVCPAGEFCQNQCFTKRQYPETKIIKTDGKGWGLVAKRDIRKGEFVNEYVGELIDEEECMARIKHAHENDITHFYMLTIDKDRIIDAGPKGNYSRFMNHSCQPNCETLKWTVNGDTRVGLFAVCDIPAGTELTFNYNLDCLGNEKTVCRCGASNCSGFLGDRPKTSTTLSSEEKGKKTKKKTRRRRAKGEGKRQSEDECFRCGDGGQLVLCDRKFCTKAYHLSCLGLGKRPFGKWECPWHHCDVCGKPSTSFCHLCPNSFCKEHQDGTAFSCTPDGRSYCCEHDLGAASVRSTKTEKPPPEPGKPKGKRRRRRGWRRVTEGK

[8] = control 3'UTR Renilla luciferase suppression, dose response, counter-screen for Shn3 inhibitor project, cell-based, Clone20-Shn3RL, cherry-picked (AID 624133); type: functional
[9] = Shn3 3'UTR reporter inhibitors, dose response, cell-based, Clone20 osteoblasts, firefly luciferase, cherry-picked (AID 624132); type: functional;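 further: firefly luciferase luminescence from reporter carrying the Shn3 3'UTR in osteoblasts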
[10] = HeLa cell cytotoxicity, dose response, cytotoxicity control for MgcRacGAP inhibitor project (AID 624300); type: functional
[11] = HepG2 cell cytotoxicity, dose response, cytotoxicity control for Shn3 inhibitor project, CellTiter-Glo, cherry-picked (AID 624134); type: functional, cell-based
Genome polyprotein = Genome polyprotein (dengue virus type 2, UniProt P29990); experiment: Dengue-2 NS5 methyltransferase inhibitors, primary screen, biochemical, confirmation dose response (AID 588689); type: functional

O=C(COC(=O)CSc1ccc2ccccc2c1Br)NC1CC1
IC50 (cells): > 138 µM (inactive)
IC50 (Major prion protein): 4.72 µM (active)

CCOCCCN=C(S)N1CCN(c2nc(-c3ccc(F)cc3)cs2)CC1
IC50 [1]: 8.63 µM (active)

CN(C)CCCNc1ncnc2sc(-c3ccccc3)cc12
IC50 (Prothrombin): > 50 µM (not active)
AC50 [2]: 17.4 µM (active)
IC50 [3]: 29.9 µM (active)
AC50 [4]: 14.6 µM (active)

CC(C)(C)c1ccc(-c2nnc3sc(-c4ccccn4)nn23)cc1
IC50 [1]: > 85.4 µM (inactive)
EC50 [5]: 0.871 µM (active)

Cc1cc2cccc(C)c2nc1SCC(=O)NNC(=O)c1ccco1
IC50 (cells): > 138 µM (inactive)
IC50 (Major prion protein): 7.04 µM (active)

Cn1c(=S)sc2ccc3ccccc3c21
IC50 (cells): 138 µM (inactive)
IC50 (Major prion protein): 6.25 µM (active)

Cc1cc(=O)n2c3c(c4c(cc13)c(CN(C)C)cc(=O)n4C)OC2
AC50 (Caspase-6): 4.06 µM (active)
AC50 [6]: 50 µM (active)
AC50 (Paired box protein Pax-8): 16.8 µM (active)

CCN(CC)CC(C)(C)C(=O)/C=C/c1ccc(/C=C/C(=O)C(C)(C)CN(CC)CC)cc1
AC50 [7]: > 20 µM (inactive)
AC50 [8]: 1.78 µM (active)
IC50 [3]: 158 µM (active)
AC50 [9]: 0.468 µM (active)
CC50 [10]: 65.5 µM (active)
AC50 [11]: 5.07 µM (active)
AC50 (Paired box protein Pax-8): 2.2 µM (active)

CC1=C/C(=C(\c2cc(C)c(O)c(Br)c2)c2ccccc2S(=O)(=O)O)C=C(Br)C1=O
AC50 [7]: 14.6 µM (active)
IC50 [3]: 79.4 µM (active)
IC50 (Genome polyprotein): 53.2 µM (active)
CC50 [10]: 100 µM (active)

CCC(OC(=O)c1ccc(S(C)(=O)=O)c([N+](=O)[O-])c1)C(=O)NC1C2CC3CC(C2)CC1C3 (configuration not stated)
AC50 [8]: 4.49 µM (active)
AC50 [9]: 1.66 µM (active)
AC50 [6]: 31.1 µM (active)
AC50 [11]: 7.27 µM (active)
AC50 (Paired box protein Pax-8): 8.07 µM (active)
